Records with an inconclusive call do not appear.
Test system: INS-1E rat beta cells, cytokine apoptosis rescue, ATP luminescence 48 h
Experiment: INS-1E survival protection against cytokine death – cell-based, luminescence, retest, dose response (AID 449756)

SMILES	AC50 [µM]
C#CCOCCOCCOCCNc1nc(N2CCN(C(=O)CCCCCCCCCCNC(=O)[C@H]([C@@H](C)CC)n3cc(CCCCN=C(N)N)nn3)CC2)nc(N2CCN(C(=O)CCCCCCCCCCNC(=O)[C@H](CCCCN)n3cc(C)nn3)CC2)n1	4.96
C#CCOCCOCCOCCNc1nc(N2CCN(C(=O)CCCCCCCCCCNC(=O)[C@H](CCCCN)n3cc(C)nn3)CC2)nc(N2CCN(C(=O)CCCCCCCCCCNC(=O)[C@@H]([C@H](C)CC)n3cc(CCCCCN)nn3)CC2)n1	5.59
C#CCOCCOCCOCCNc1nc(N2CCN(C(=O)CCCCCCCCCCNC(=O)[C@H]([C@@H](C)CC)n3cc(CCCCCN)nn3)CC2)nc(N2CCN(C(=O)CCCCCCCCCCNC(=O)[C@H]([C@@H](C)CC)n3cc(CCCCN=C(N)N)nn3)CC2)n1	4.66
C#CCOCCOCCOCCNc1nc(N2CCN(C(=O)CCCCCCCCCCNC(=O)[C@H](CCCCN)n3cc(CCO)nn3)CC2)nc(N2CCN(C(=O)CCCCCCCCCCNC(=O)[C@H](CCCCN)n3cc(C[C@@H](C)CC)nn3)CC2)n1	6.27
C#CCOCCOCCOCCNc1nc(N2CCN(C(=O)CCCCCCCCCCNC(=O)[C@H](CCCCN)n3cc(C)nn3)CC2)nc(N2CCN(C(=O)CCCCCCCCCCNC(=O)[C@H](CCCN=C(N)N)n3cc(C[C@@H](C)CC)nn3)CC2)n1	6.66
C#CCOCCOCCOCCNc1nc(N2CCN(C(=O)CCCCCCCCCCNC(=O)[C@H]([C@@H](C)CC)n3cc(CCCCCN)nn3)CC2)nc(N2CCN(C(=O)CCCCCCCCCCNC(=O)[C@@H]([C@H](C)O)n3cc(C)nn3)CC2)n1	5.76
C=C(C=O)C[C@@H]1C[C@H](O)C2OC3C[C@]4(C)OC5/C=C\CC6OC7C(CC=CCC6OC5CCCC4OC3CC2O1)OC1CC2OC3CC(=O)OC3C[C@@H](C)C[C@@]2(C)OC1C[C@@H]7C (stereo not given in full)	2.17
C#CCOCCOCCOCCNc1nc(N2CCN(C(=O)CCCCCCCCCCNC(=O)[C@@H](CCSC)n3cc(CCO)nn3)CC2)nc(N2CCN(C(=O)CCCCCCCCCCNC(=O)[C@H]([C@@H](C)CC)n3cc(CCCCCN)nn3)CC2)n1	3.98
C#CCOCCOCCOCCNc1nc(N2CCN(C(=O)CCCCCCCCCCNC(=O)[C@H]([C@@H](C)CC)n3cc(CCCCN=C(N)N)nn3)CC2)nc(N2CCN(C(=O)CCCCCCCCCCNC(=O)[C@H](CO)n3cc(CCCCCN)nn3)CC2)n1	6.94
C#CCOCCOCCOCCNc1nc(N2CCN(C(=O)CCCCCCCCCCNC(=O)Cn3cc(CCCCCN)nn3)CC2)nc(N2CCN(C(=O)CCCCCCCCCCNC(=O)[C@H]([C@@H](C)CC)n3cc(CCCCN=C(N)N)nn3)CC2)n1	6.89

Reference: PubChem BioAssay AID449756 (Broad Institute, 2010)
